Test results as given in patent US20150272874A1, “PULMONARY DISEASE-SPECIFIC THERAPEUTIC AGENT” (CARDIO INCORPORATED, priority 2012, published 2015).
Values joined by “and” are separate entries in the source; they are usually repeats but may differ in a detail not shown here. Equal values may be shown once. Where a name gives a salt, the structure may show the parent alone. Each block holds one compound with its values, some of them ahead of it.

Legend:
[1] = cited from earlier work
[2] = test system: MCT-induced mild pulmonary hypertension model; details: mild disease model; Am J Respir Crit Care Med 169: 34-38-2004; cited from earlier work
[3] = Maximum tolerated oral dose without blood-pressure-lowering effect; type: in vivo
[4] = test system: monocrotaline (MCT) pulmonary hypertension models; assay: Pharmacological Effect Test 5: combined effect of ozagrel hydrochloride with Compounds 3 and 7, survival; type: in vivo, Slc;Wistar female rats; details: oral twice a day until Day 42; Compound 3 or 7 0.1 mg/kg, ozagrel hydrochloride 100 mg/kg, alone or combined
Protocol: After Slc;Wistar female rats (5 weeks old) were anesthetized with inhaled isoflurane, an aqueous monocrotaline (MCT) solution was subcutaneously administered into the dorsal region of each rat at a dose of 60 mg/kg (an injection volume of 3 mL/Kg) using a disposable syringe and a 27G disposable injection needle to prepare pulmonary hypertension models.
From immediately after the MCT administration until Day 42, test substances were repeatedly administered orally twice a day as shown in the following table.
The test substances were suspended in 0.5% aqueous CMC-Na solutions, and the aqueous solutions were orally administered repeatedly at a dose of 5 mL/kg.

blood TXA2 concentration = details: MCT rat models; Am J Respir Crit Care Med 172, 1575-1580 (2005); cited from earlier work
[5] = cited from earlier work; remark: listed apart in the source
TXA2 synthetase = target: T1, TXA2 synthetase (Rattus norvegicus, UniProt P49430); assay: Dose completely inhibiting TXA2 synthetase; type: in vivo; details: oral dose
T1 construct: endogenous in cells; host or cells: Whole animal dosed in vivo (rat inferred)
T1 sequence (P49430 1-533): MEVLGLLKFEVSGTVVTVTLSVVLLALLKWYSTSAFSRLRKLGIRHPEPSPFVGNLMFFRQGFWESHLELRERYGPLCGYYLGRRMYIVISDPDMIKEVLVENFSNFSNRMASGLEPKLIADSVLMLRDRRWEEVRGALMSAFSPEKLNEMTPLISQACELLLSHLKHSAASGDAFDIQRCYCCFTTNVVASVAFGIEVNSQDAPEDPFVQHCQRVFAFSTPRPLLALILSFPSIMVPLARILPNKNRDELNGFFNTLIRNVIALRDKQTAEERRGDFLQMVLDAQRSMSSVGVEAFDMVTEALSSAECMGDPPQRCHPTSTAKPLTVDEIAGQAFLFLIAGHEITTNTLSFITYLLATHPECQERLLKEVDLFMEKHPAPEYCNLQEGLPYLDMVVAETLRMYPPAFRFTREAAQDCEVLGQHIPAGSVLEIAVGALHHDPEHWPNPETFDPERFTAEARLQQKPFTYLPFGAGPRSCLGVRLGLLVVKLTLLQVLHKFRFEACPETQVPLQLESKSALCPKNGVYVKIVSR

[6] = test system: Normal human newborn foreskin dermal fibroblasts (Fibrocell NHDF (NB)); assay: Pharmacological Effect Test 6: production of cytokines (ELISA) and PGs (EIA); type: cell-based; details: 1 μM, 72 hours, n=3, M ± S.E.
Protocol: Normal human newborn foreskin dermal fibroblasts (Fibrocell NHDF (NB)) provided from Kurabo Industries, Ltd., were cultured to confluency at […] (DMEM 10% FBS). Twenty-four hours after replacing the medium with (serum-free) DMEM, the medium was replaced with DMEM (0.2% FBS), and Compound 1 (1 μM) and a solvent (DMSO) was added. The cells were cultured for 72 hours (n=3).
Cytokines in the culture were measured by ELISA, and prostaglandins were measured by EIA.
PGI2 was measured by using a degradation product of PGI2 (6-keto-PGF1α).

[7] = Pharmacological Effect Test 3: Compound 1 content of the lungs (LC/MS/MS); type: in vivo, Slc;Wistar male rats; details: for Concentration of Compound 1 in the tissue: lung, individual animals, 1 mg/kg
Protocol: Further, the Compound 1 contents of the lungs in Groups 3 and 4 were measured.
A four-fold amount of a mixture of distilled water and ethanol relative to the lung weight was added to form a homogenate. Acetonitrile was added to a part of the homogenate and the resulting mixture was stirred. The centrifuged supernatant was collected and concentrated. After the concentrate was dissolved in a solvent, LC/MS/MS measurement was performed under the same conditions as in Preparation Test Example 2 to determine Compound 1 content of the lungs.

Compound: CC#CC[C@@H](C)[C@H](O)/C=C/[C@@H]1[C@H]2c3cccc(CCCC(=O)[O-])c3O[C@H]2C[C@H]1O.[Na+] (racemic) [Compound 3, sodium (±)-(1R,2R,3aS,8bS)-2,3,3a,8b-tetrahydro-2-hydroxy-1-[(E)-(3S,4RS)-3-hydroxy-4-methyl-1-octen-6-ynyl]-1H-cyclopenta[b]benzofuran-5-butanoate]
long-term effects ([1]; after 1 year): no significant difference
exercise tolerance ([1]; relatively short-term (after 12 weeks)): improved
combined effect with a PDEV inhibitor (sildenafil) [2]: synergistic effect
efficacy administered alone [2]: efficacious
MTD ([3]; Slc:Wistar, rat, in vivo, read-out: maximum tolerated dose that does not show blood-pressure-lowering effect): 0.1 mg/kg
survival rate vs medium-administered group [4]: no survival prolongation effect

Compound: CCCCC[C@H](O)/C=C/[C@@H]1[C@H]2C/C(=C/CCCC(=O)O)O[C@H]2C[C@H]1O [Epoprostenol sodium, reference compound]
blood TXA2 concentration (blood TXA2 concentration): further increases
half-life [5]: about 6 minutes

Compound: O=C(O)/C=C/c1ccc(Cn2ccnc2)cc1 [ozagrel hydrochloride]
amount that completely inhibits the TXA2 synthetase (TXA2 synthetase): 100 mg/kg
survival rate vs medium-administered group [4]: no survival prolongation effect

Compound: CCCC[C@H](C)C[C@H](O)/C=C/[C@H]1[C@H](O)CC(=O)[C@@H]1CC(=O)CCCCC(=O)OC [Compound 7, 17S,20-dimethyl-6-oxo-prostaglandin E1 methyl ester]
maximum tolerated dose that does not show blood-pressure-lowering effect [3]: 0.1 mg/kg
survival rate vs medium-administered group [4]: no survival prolongation effect

average concentration in lung tissue ([7]; Group 3: Preparation Example 1 single i.v. 1 mg/kg): 76.35 ng/g
average concentration in lung tissue ([7]; Group 4: Preparation Example 1 single s.c. 1 mg/kg): 0.659 ng/g
concentration in lung tissue, intravenous compared to subcutaneous injection ([7]; i.v. 1 mg/kg vs s.c. 1 mg/kg): about 120 fold
ratio of Group 3 to Group 4, concentration in lung tissue ([7]; i.v. 1 mg/kg vs s.c. 1 mg/kg): 115.9
Concentration of Compound 1 in the tissue ([7]; Group 4 (1 mg/kg) as printed, Preparation Example 1): 1.06 ng/g and 0.258 ng/g
Compound: O=C(O)COc1cccc2c1CCC=C2CCO/N=C(\c1ccccc1)c1cccnc1 [Compound 1, (E)-[5-[2-[1-phenyl-1-(3-pyridyl)methylideneaminooxy]ethyl]-7,8-dihydronaphthalen-1-yloxy]acetic acid]
blood TXA2 concentration (blood TXA2 concentration): inhibits an increase
6-keto-PGF1α (PGI2) [6]: 44.5 ± 4.014 pg/mL
G-CSF [6]: 28.71 ± 6.110 pg/mL
HGF [6]: 102.60 ± 15.658 pg/mL
HMGB1 [6]: 1.480 ± 0.147 ng/mL
PGE2 [6]: 38.1 ± 6.392
SDF-1α [6]: 2457.46 ± 231.884 pg/mL
VEGF [6]: 38.44 ± 11.857 pg/mL
Concentration of Compound 1 in the tissue ([7]; Group 3 (1 mg/kg) of Preparation Example 1): 50.0 ng/g and 99.2 ng/g and 45.2 ng/g and 111 ng/g
